# In patent US10662204B2 (PFIZER INC., priority 2018, dated 2020):
# Experiments:
# KRAS G12C = KRAS G12C (Homo sapiens, UniProt P01116, G12C); test: Cell Activity Assay: accumulation of GDP-bound KRAS G12C in MIAPaCa-2 cells (Raf-1 RBD capture, MSD readout); assay type: cell-based; design: endogenous in cells; host or cells: MIAPaCa-2; details: 6 hours, assay limit is 30.00
# Description: Compounds presented in the present invention lead to the accumulation of the GDP bound Ras upon treatment of human cancer cell line.
# The accumulation of the GDP-bound KRAS G12C in cellular environment was measured based on the principle that KRAS G12C only binds to its downstream kinase; Raf-1 (MAP Kinase Kinase Kinase), when in its active-GTP bound state. In this state, Ras binded to a domain of Raf-1 kinase referred to as the Ras Binding Domain (RBD).
# MIAPaCa-2 cells were grown in RPMI 1640 medium (Gibco 11875) supplemented with 10% fetal bovine serum and 1% penicillin/streptomycin. Cells were seeded in 96-well tissue culture plates at a density of 30,000 cells/well and allowed to attach for 16-24 hours. Test compounds were prepared as a 10 mM stock in DMSO and serially diluted in 100% DMSO using a 3-fold dilution scheme. An intermediate 5× concentrated plate in complete growth medium was made and 25 μl/well was added to the 100 μl of cells for a final concentration of 0.3% DMSO. Each concentration of exemplary compound was tested in duplicate. The negative control wells were cells with control inhibitor at 10 μM, and the positive control wells were cells without drugs, DMSO only. Plates were incubated for 6 hours at 37° C., 5% CO2. Following treatment, cells were washed 3× with ice-cold PBS and 115 μl/well ice-cold 1× Assay/Lysis. Buffer with protease inhibitors was added (25 mM HEPES, pH 7.5, 150 mM NaCl, 1% NP-40, 10 mM MgCl2, 1 mM EDTA, 2% Glycerol). Following lysis samples were frozen at −80° C.
# Raf-1 RBD (LJIC-1988A1) was diluted to 100 ng/well in PBS and 5 μl/well was spot coated onto MSD high bind SECTOR plates (L15XB). Plates were incubated at room temperature for 1 hour on an orbital shaker. Plates were washed with PBS/0.05% Tween-20 and 50 μl/well of thawed lysate samples were added, followed by 50 μl of 1% MSD Blocker A in PBS/0.05 Tween-20 (R93BA). Plates were incubated for 1 hour on an orbital shaker and washed with PBS/0.05% Tween-20. 25 μl/well of Anti-pan-Ras Antibody (Cell Biolabs 244003) diluted 1:3000 was added in 1% MSD Blocker A solution and plates were incubated for 1 hour on an orbital shaker and washed with PBS/0.05% Tween-20. SULFO-TAG goat anti-mouse secondary antibody (MSD R32AC) was diluted 1:500 in MSD Blocker A solution and added at 25 μL/well. Plates were incubated for 1 hour on an orbital shaker and washed with PBS/0.05% Tween-20. 150 μl/well of Read Buffer T (MSD R92TC) diluted 1:3 in H2O was added and plates were read on a Meso Scale Discovery Sector Imager S600.
# KRAS signal was normalized to maximum inhibition and DMSO control values, and IC50 values were generated using a 4 parameter fit of the dose response curve. The decrease in IC50 reflects that the exemplary compound lead to a higher level of accumulation of GDP-bound KRAS G12C than another exemplary compounds at specific timepoint of treatment of cancer cell line.
# [1] = biological target: T1, GDP-loaded KRAS (1-169) G12C, C51S, C80L, C118S (Homo sapiens, UniProt P01116, C118S/C51S/C80L/G12C); test: Mass Spectrometry Reactivity Assay (MSRA): covalent adduct of compound and KRAS G12C, Percent Modification; assay type: binding; details: for MSRA (% modification) 10 μM 0.25 hr / MSRA (% modification) 10 μM 0.50 hr: 10 μM compound; for MSRA (% modification) 5.0 μM 0.017 hr / MSRA (% modification) 5.0 μM 0.25 hr: 5.0 μM compound
# T1 construct: GDP-loaded KRAS (1-169) G12C, C51S, C80L, C118S
# Description: Mass Spectrometry Reactivity Assay (MSRA)
# Compounds presented in the present invention covalently bind to KRAS G12C using MSRA to detect a covalent adduct of the exemplary compound and KRAS G12C.
# GDP-loaded KRAS (1-169) G12C, C51S, C80L, C118S were diluted in the protein assay buffer 25 mM Hepes pH7.5, 200 mM NaCl, 5% glycerol to concentration of 5 μM and 20 μl of protein was transferred into 96-well plate. Initial compound stocks were generated at concentrations 100-fold higher that their desired assay concentrations. See K-Ras(G12C) inhibitors allosterically control GTP affinity and effector interactions; Ostrem J M, Peters U, Sos M L, Wells J A, Shokat K M; Nature. 2013, Nov. 28; 503(7477):548-51.
# Exemplary compounds dissolved in DMSO were diluted 100-fold into solution containing 20 μl of 5 μM KRAS protein in the 96-well plate to initiate the reaction. Mosquito (TPP Lab tech) liquid handling robot was used to add compounds to protein solution. Typical final concentration of the compounds was 5 μM or 10 μM. The plates were placed on a shaker for 1 min at RT, sealed and incubated at room temperature for specified time period. 5 μl of reaction mix was added to 10 μl of 0.2% formic acid stop solution and mixed well. Typical end points were 1, 15, 30, and 60 min.
# Data were collected using Waters Acquity H-class UPLC system/Xevo G2-XS TOF mass spectrometer. The protein was injected in their liquid phase onto a Bruker Microtrap protein column TR1/15109/03. The following buffers were used to set LC gradient: Buffer A: 0.2% formic acid H2O; B: 0.2% formic acid CAN. The protein was eluted from the column using the following LC Gradient: 0-0.4 min, 10% B to 30% B; 0.4 min-2.4 min, to 90% B, 2.5 min, 10% B, 3 min, 10% B. Initial data analysis was performed using MaxEnt software right after data acquisition.
# The standard auto processing function was used to define percentage of unmodified and modified KRAS protein using MexEnt software right after data acquisition. The highest peak was defined as 100% while smaller peak as assigned the number defined by autoprocessing function. The percent of modification corresponding to modified with exemplary compound and unmodified KRAS GDP-loaded KRAS (1-169) G12C, C51S, C80L, C118S were exported to Xcel data analysis software.
# The percent of modified protein at the defined concentration of exemplary compound was calculated using the following formula: % mod=Num of modified peak/Sum of modified+unmodified. The resultant value defined as Percent Modification (PM) and an increase in PM reflects that the specific compound is better than other compounds at specified compound concentration at a given time point.
SMILES,IC50 (KRAS G12C) [µM],MSRA (% modification) 10 μM 0.25 hr [1] [%],MSRA (% modification) 5.0 μM 0.017 hr [1] [%],MSRA (% modification) 10 μM 0.50 hr [1] [%],MSRA (% modification) 5.0 μM 0.25 hr [1] [%]
"C=CC(=O)N1CCN(c2ncnc3c(Oc4c(Cl)c(F)cc5[nH]ncc45)nc(Cl)cc23)[C@H](C)C1 [Example 40A, 1-[(3R)-4-{6-chloro-8-[(5-chloro-6-fluoro-1H-indazol-4-yl)oxy]pyrido[3,4-d]pyrimidin-4-yl}-3-methylpiperazin-1-yl]prop-2-en-1-one]",20.9,6,–,–,–
"C=CC(=O)N1CCN(c2nc(Oc3cccc4c3CCN(C3CC3)C4)nc3c(Oc4c(Cl)c(F)cc5[nH]ncc45)nccc23)CC1 [Example 55I, 1-(4-{8-[(5-chloro-6-fluoro-1H-indazol-4-yl)oxy]-2-[(2-cyclo-propyl-1,2,3,4-tetrahydro-isoquinolin-5-yl)oxy]pyrido [3,4-d]pyrimidin-4-yl}piperazin-1-yl)prop-2-en-1-one]",0.028,–,60,–,–
"C=CC(=O)N1CCN(c2ncnc3c(Oc4c(Cl)c(F)cc5[nH]ncc45)nccc23)C[C@@H]1C [Example 26A, 1-[(2S)-4-{8-[(5-chloro-6-fluoro-1H-indazol-4-yl)oxy]pyrido[3,4-d]pyrimidin-4-yl}-2-methylpiperazin-1-yl]prop-2-en-1-one]",27.6,–,–,14,–
"C=CC(=O)N1CCN(c2ncnc3c(Oc4c(C)c(Cl)cc5[nH]ncc45)nc(C#N)cc23)CC1 [Example 28A, 4-(4-acryloylpiperazin-1-yl)-8-[(6-chloro-5-methyl-1H-indazol-4-yl)oxy]pyrido[3,4-d]pyrimidine-6-carbonitrile]",1.02,–,–,61,–
"C=CC(=O)N1CCN(c2nc(Oc3cccc4c3CCN(CC)C4)nc3c(Oc4c(Cl)c(F)cc5[nH]ncc45)nccc23)CC1 [Example 17I, 1-(4-{8-[(5-chloro-6-fluoro-1H-indazol-4-yl)oxy]-2-[(2-ethyl-1,2,3,4-tetrahydro-isoquinolin-5-yl)oxy]pyrido [3,4-d]pyrimidin-4-yl}piperazin-1-yl)prop-2-en-1-one]",0.005,–,82,–,–
"C=CC(=O)N1CCN(c2nc(O[C@@H]3CN(C)C[C@H]3C(F)F)nc3c(Oc4c(Cl)c(F)cc5[nH]ncc45)nccc23)CC1 (single isomer, unassigned) [Example 58I]",0.006,–,58,–,–
"C=CC(=O)N1CCN(c2nc(Oc3cnn(C)c3)nc3c(Oc4c(Cl)c(F)cc5[nH]ncc45)nccc23)CC1 [Example 09I, 1-(4-{8-[(5-chloro-6-fluoro-1H-indazol-4-yl)oxy]-2-[(1-methyl-1H-pyrazol-4-yl)oxy]pyrido [3,4-d]pyrimidin-4-yl}piperazin-1-yl)prop-2-en-1-one]",0.398,–,–,–,44
"C=CC(=O)N1CCN(c2ncnc3c(Oc4c(Br)c(C)cc5[nH]ncc45)nccc23)CC1 [Example 13A, 1-(4-{8-[(5-bromo-6-methyl-1H-indazol-4-yl)oxy]pyrido[3,4-d]pyrimidin-4-yl}piperazin-1-yl)prop-2-en-1-one]",0.394,44,–,69,–
C=CC(=O)N1CCN(c2ncnc3c(Oc4c(Cl)ccc5[nH]ncc45)nc(C(F)(F)F)cc23)CC1 [Example 04A],2.26,–,–,40,–
"C=CC(=O)N1CCN(c2nc(OCC3(F)CCN(C)CC3)nc3c(Oc4c(Cl)c(F)cc5[nH]ncc45)nccc23)CC1 [Example 12I, 1-(4-{8-[(5-chloro-6-fluoro-1H-indazol-4-yl)oxy]-2-[(4-fluoro-1-methyl-piperidin-4-yl)methoxy]pyrido [3,4-d]pyrimidin-4-yl}piperazin-1-yl)prop-2-en-1-one]",0.12,–,–,–,78
C=CC(=O)N1CCN(c2nc(O[C@@H]3CN(C)C[C@H]3OC)nc3c(Oc4c(C)ccc5[nH]ncc45)nccc23)CC1 [Example 28I],1,–,11,–,–
"C=CC(=O)N1CCN(c2ncnc3c(Cc4c(C)ccc5[nH]ncc45)cccc23)CC1 [Example 01D, 1-(4-{8-[(5-methyl-1H-indazol-4-yl)methyl]quinazolin-4-yl}piperazin-1-yl)prop-2-en-1-one]",6.69,–,–,37,–
"C=CC(=O)N1CCN(c2nc(OC[C@H]3CCCO3)nc3c(Oc4c(Cl)c(F)cc5[nH]ncc45)nccc23)CC1 [Example 06H, 1-(4-{8-[(5-chloro-6-fluoro-1H-indazol-4-yl)oxy]-2-[(2R)-tetrahydrofuran-2-ylmethoxy]pyrido[3,4-d]pyrimidin-4-yl}piperazin-1-yl)prop-2-en-1-one]",0.611,60,–,–,48
"C=CC(=O)N1CCN(c2nc(O[C@@H]3CN(C)C[C@H]3CC)nc3c(Oc4c(Cl)c(F)cc5[nH]ncc45)nccc23)CC1 (racemic) [Example 21I, rac-1-[4-(8-[(5-chloro-6-fluoro-1H-indazol-4-yl)oxy]-2-{[(3S,4R)-4-ethyl-1-methyl-pyrrolidin-3-yl]oxy}pyrido [3,4-d]pyrimidin-4-yl)piperazin-1-yl]prop-2-en-1-one]",0.094,–,42,–,–
"C=CC(=O)N1CCN(c2nc(OC[C@H]3CCCN3C)nc3c(Oc4c(C)c(Cl)cc5[nH]ncc45)cccc23)CC1 [Example 21E, 1-[4-(8-[(6-chloro-5-methyl-1H-indazol-4-yl)oxy]-2-{[(2R)-1-methylpyrrolidin-2-yl]methoxy}quinazolin-4-yl)piperazin-1-yl]prop-2-en-1-one]",0.18,65,–,–,–
